Source: patent publication US4318858A, “Thioethylamide derivatives” (Shionogi & Co., Ltd., priority 1979, dated 1982)
Where two headings read alike, the source gives them in different places.

Tests used:
[1] = biological target: T1, histamine H2 receptor (Cavia porcellus, UniProt P47747); assay: inhibition of the palpitation number of guinea pig's enucleated atrium (histamine antagonism); format: cell-based; details: compounds (I) as the oxalates
T1 construct: guinea pig's enucleated atrium; from tissue; host or cells: guinea pig isolated ("enucleated") atrium
T1 sequence (P47747 whole entry): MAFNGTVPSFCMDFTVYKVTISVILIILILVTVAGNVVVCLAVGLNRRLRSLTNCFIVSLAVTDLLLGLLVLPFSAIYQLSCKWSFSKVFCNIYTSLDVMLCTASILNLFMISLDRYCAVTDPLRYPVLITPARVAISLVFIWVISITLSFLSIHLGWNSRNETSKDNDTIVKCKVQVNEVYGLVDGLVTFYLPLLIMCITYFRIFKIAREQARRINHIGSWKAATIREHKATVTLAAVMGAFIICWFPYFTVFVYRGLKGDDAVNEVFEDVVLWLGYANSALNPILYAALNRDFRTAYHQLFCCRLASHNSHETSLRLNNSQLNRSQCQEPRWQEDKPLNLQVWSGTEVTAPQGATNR
Text: The pA2 value is defined as a negative logarithm of the concentratio
of the compound (I) required to shift the doseresponse of histamine to th
high concentration side by 2fold. [Ariens, E.J., Molecular Pharmacology,
(1964), Academic Press, New York and London].

[2] = system: gastric acid secretion; assay: gastric acid secretion inhibiting activity in Donryu male rats (pH value in the stomach); format: in vivo; details: Rattus norvegicus, oxalate
[3] = acute toxicity in mice; details: mouse, in vivo, oxalate

Row | Structure (SMILES) | Kb [1] [nM] | further results
1 | COC(=O)c1ccc(C(=O)NCCSCc2ccc(CN3CCCC3)s2)cc1 | 550 | 
2 | CN(C)Cc1ccc(CSCCNC(=O)c2ccc(S(N)(=O)=O)cc2)o1.O=C(O)C(=O)O [N-[2-[[(5-dimethylaminomethyl-2-furyl)-methyl]thio]ethyl]-4-sulfamoylbenzamide oxalate] |  | ED50 [2]: 2.54 mg/kg; LD50 ([3]; iv, read-out: acute toxicity LD50 i.v.): 150 mg/kg; LD50 ([3]; po, read-out: acute toxicity LD50 p.o.): > 1000 mg/kg
3 | COC(=O)c1ccc(C(=O)NCCSCc2ccc(CN(C)C)o2)cc1 [Test No. 4] | 468 | 
4 | CC=CC=CC(=O)NCCSCc1ccc(CN(C)C)o1 [Test No. 5] | 1910 | 
5 | CN(C)Cc1ccc(CSCCNC=O)o1 [Test No. 6] | 1860 | 
6 | CN(C)Cc1ccc(CSCCNC(=O)c2ccc(S(N)(=O)=O)cc2)o1 [Test No. 7] | 151 | 
7 | O=C(NCCSCc1ccc(CN2CCCC2)s1)c1ccc([N+](=O)[O-])cc1 [Test No. 9] | 912 | 
8 | Cc1cc(CSCCNC(=O)c2ccc(S(N)(=O)=O)cc2)sc1CN1CCCC1 [Test No. 10] | 2190 | 
9 | CC(C)c1cc(CN2CCCC2)sc1CSCCNC(=O)c1cccnc1 [Test No. 11] | 501 | 
10 | Cc1cc(CSCCNC(=O)c2ccc([N+](=O)[O-])cc2)oc1CN1CCCC1 [Test No. 12] | 851 | 
